Measured values from US4943566A, “Novel 17-aryl-steroids” (Roussel Uclafi, priority 1987, dated 1990).

Biological target: T1, glucocorticoid receptor, rat thymus (Rattus norvegicus, UniProt P06536)
T1 construct: The second test was a glucocrticoid receptor test on rat thymus; from tissue; host or cells: thymus of adrenalectomized male Sprague Dawley EOPS rats, 105,000 g supernatant (cytosol)
T1 sequence (P06536 1-795): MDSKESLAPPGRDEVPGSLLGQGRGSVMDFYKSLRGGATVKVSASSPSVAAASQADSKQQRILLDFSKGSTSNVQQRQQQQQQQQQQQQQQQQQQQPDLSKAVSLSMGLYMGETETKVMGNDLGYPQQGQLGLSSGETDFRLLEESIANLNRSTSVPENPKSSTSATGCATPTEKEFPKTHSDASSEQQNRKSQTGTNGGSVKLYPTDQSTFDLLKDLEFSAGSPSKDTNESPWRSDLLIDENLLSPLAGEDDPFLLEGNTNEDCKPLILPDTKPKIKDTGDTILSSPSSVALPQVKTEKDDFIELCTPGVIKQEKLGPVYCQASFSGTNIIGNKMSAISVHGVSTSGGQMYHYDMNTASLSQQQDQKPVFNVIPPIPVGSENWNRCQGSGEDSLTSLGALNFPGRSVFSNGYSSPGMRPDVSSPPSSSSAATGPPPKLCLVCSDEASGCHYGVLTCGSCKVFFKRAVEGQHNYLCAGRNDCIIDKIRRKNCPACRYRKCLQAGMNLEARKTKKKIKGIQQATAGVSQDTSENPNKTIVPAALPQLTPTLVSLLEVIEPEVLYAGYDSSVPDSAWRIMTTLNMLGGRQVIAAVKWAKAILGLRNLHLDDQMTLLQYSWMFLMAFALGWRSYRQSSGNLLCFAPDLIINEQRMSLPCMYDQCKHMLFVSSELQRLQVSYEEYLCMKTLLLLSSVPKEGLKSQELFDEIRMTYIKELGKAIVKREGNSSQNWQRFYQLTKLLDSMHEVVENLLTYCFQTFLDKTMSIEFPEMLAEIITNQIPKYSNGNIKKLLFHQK
Experiment: Relative binding affinity (ARL), glucocorticoid receptor of rat thymus
Conditions: rat thymus cytosol, tritiated dexamethasone, cold reference dexamethasone; for relative affinity of the bond (ARL), Glucocorticoid, 2H: incubation 2H at 0° C.; for relative affinity of the bond (ARL), Glucocorticoid, 24H: incubation 24H at 0° C.
Experimental: The second test was a glucocrticoid receptor test on rat thymus in which male rats of the Sprague Dawley EOPS strain weighing 160 to 200 g were surrenalectomized. 4 to 8 days after this ablation, the animals were killed and the thymus was removed and homogenized at 0° C. in a buffered TS solution. (Tris 10 mM, 0.25M saccharose, 2 mM dithiothreitol, HCl pH 7.4) with a Potter tetrafluoroethylene-glass (1 g of tissue per 10 ml/TS). The homogenate was ultracentrifuged at 105,000 for 90 minutes at 0° C. and the surnageant samples were incubated at 0° C. for a time t with a constant concentration T of tritiated dexamethasone in the presence of increasing concentrations (0-2500×10^-9 M) or cold dexamethasone or cold test compound. The concentration B of bound tritiated dexamethasone was measured for each incubate by carbon-dextran absorption technique.
The relative affinity of the bond (ARL) was calculated in the same for the receptors. One traced the following 2 curves: the percentage of bond tritiated hormone B/T as a logarithmic function of the concentration of the cold reference hormone and B/T as a logarithmic function of the concentration of the cold test compound. Using the equation [formula] B/T max.=% of bound tritiated hormone for one incubation of tritiated hormone at concentration (T)
B/T min.=% of bound tritiated hormone for one incubation of tritiated hormone at a concentration T in the presence of a great excess of cold hormone (2500×10^-9 M).
The intersections of I50 lines and the curves permit an evaluation of the hormone concentration of the cold reference (CH) and the cold test compound (CX) which inhibited by 50% the bounding of tritiated hormone to the receptor. The ARL of the test compound was determined by the equation. [formula] and the following results were obtained.

Row | SMILES | relative affinity of the bond (ARL), Glucocorticoid, 2H | relative affinity of the bond (ARL), Glucocorticoid, 24H
1 | CN(C)c1ccc([C@H]2C[C@@]3(C)[C@@H](CC[C@@]3(O)c3ccc(N(C)C)cc3)[C@@H]3CCC4=CC(=O)CCC4=C32)cc1 [Example 2, 11β,17α-bis-(4-dimethylamino-phenyl)-Δ^4,9-estradiene-17β-ol-3-one] | 61 | 58
2 | COc1ccc([C@]2(O)CC[C@H]3[C@@H]4CCC5=CC(=O)CCC5=C4[C@@H](c4ccc(N(C)C)cc4)C[C@@]32C)cc1 [Example 4, 11β-(4-dimethylamino-phenyl)-17α-(4-methoxy-phenyl)-Δ^4,9-estradiene-17β-ol-3-one] | 65 | 69
